Data taken from patent publication US12709603B2, “Crystalline forms of {2-[3-cyclohexyl-3-(trans-4-propoxy-cyclohexyl)-ureido]-thiazol-5-ylsulfanyl}-acetic acid and uses thereof” (vTv Therapeutics LLC, priority 2020, dated 2026).
Entries after “also recorded” stand apart in the source; their conditions may differ.

Assays:
[1] = Drying of selected materials under vacuum at 45° C., solid form checked by XRPD; type: physicochemical
Method: (§1) XRPD patterns were collected with a PANalytical X'Pert PRO MPD or Empyrean diffractometer using an incident beam of Cu radiation produced using an Optix long, fine-focus source. An elliptically graded multilayer mirror was used to focus Cu Ku X-ray radiation through the specimen and onto the detector. Prior to the analysis, a silicon specimen (NIST SRM 640e) was analyzed to verify the observed position of the Si (111) peak is consistent with the NIST-certified position. A specimen of the sample was sandwiched between 3-μm-thick films and analyzed in transmission geometry. A beam-stop, short antiscatter extension, and antiscatter knife-edge were used to minimize the background generated by air. Soller slits for the incident and diffracted beams were used to minimize broadening from axial divergence. Diffraction patterns were collected using a scanning position-sensitive detector (X'Celerator) located 240 mm from the specimen and Data Collector software v. 5.5.

[2] = Polymorph screen (evaporation, cooling, slurry, solvent/anti-solvent); type: physicochemical; settings: EtOAc/HFIPA (36:64), stirred at 60° C. 1 d, FC to ice/water bath, FE w/N2 purge
Source text: Solids of Compound I unless noted otherwise, was used as the starting material. Materials produced in the study were utilized for selected experiments.
Solutions of starting material were allowed to partially evaporate or evaporate to dryness at ambient or elevated temperature from open vials for fast evaporation (FE) or from vials covered with aluminum foil with pin holes for slow evaporation (SE). Prior to evaporation, solutions were filtered at ambient or elevated temperature using 0.2 μm nylon filters.
Solutions of starting material were prepared in specified solvents at elevated temperature using a hot plate for heating. These were typically hot-filtered through a 0.2 μm nylon filter into warm receiving vials. […]
XRPD patterns were collected with a PANalytical X'Pert PRO MPD or Empyrean diffractometer using an incident beam of Cu radiation produced using an Optix long, fine-focus source. […] Prior to the analysis, a silicon specimen (NIST SRM 640e) was analyzed to verify the observed position of the Si (111) peak is consistent with the NIST-certified position. A specimen of the sample was sandwiched between 3-μm-thick films and analyzed in transmission geometry. […]

[3] = Stable form and hydrate screen via slurry-trituration experiments; type: physicochemical; settings: anh. EtOH, 55° C., 7 d, brown suspension
Method: Slurry triburation experiments target the stable forms, including stable solvates and hydrates.
The slurry-trituration experiments were conducted by stirring solids of Compound I in specified solvents and solvent mixtures at various temperatures for 7 days (elevated temperature) or 14-18 days (ambient and sub-ambient temperatures). A summary of experimental conditions and results is detailed in Table 13.
as §1

glucokinase = target: T1, glucokinase (Homo sapiens, UniProt P35557); settings: cited from earlier work
T1 sequence (P35557 1-465): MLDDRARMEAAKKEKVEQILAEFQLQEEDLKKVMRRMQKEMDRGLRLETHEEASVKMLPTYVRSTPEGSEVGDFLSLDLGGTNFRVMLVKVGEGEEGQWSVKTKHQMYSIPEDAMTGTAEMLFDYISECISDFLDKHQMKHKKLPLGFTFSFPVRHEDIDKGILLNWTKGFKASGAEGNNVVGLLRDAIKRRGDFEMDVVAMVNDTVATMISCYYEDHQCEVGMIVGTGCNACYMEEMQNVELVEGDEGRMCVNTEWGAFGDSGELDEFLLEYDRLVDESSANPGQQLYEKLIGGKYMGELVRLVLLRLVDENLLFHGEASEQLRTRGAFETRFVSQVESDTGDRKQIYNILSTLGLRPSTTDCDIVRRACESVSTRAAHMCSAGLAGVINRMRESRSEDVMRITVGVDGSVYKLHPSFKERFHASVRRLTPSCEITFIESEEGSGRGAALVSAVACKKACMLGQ

[4] = Competitive slurry experiment in acetone among Form A, Form D, Form B and Form E, XRPD; type: physicochemical; settings: for XRPD Results after competitive slurry of Forms A, D, B, E: acetone pre-saturated with Form A, 7 d, solids analyzed wet
Source text: At each condition, similar amounts of solids from the four forms/materials were slurried in pre-saturated solutions at the examined temperature conditions for 7 days; solids were then isolated and analyzed wet by XRPD.
as §1

## CCCO[C@H]1CC[C@H](N(C(=O)Nc2ncc(SCC(=O)O)s2)C2CCCCC2)CC1 [Compound I Form E + minor Form A, {2-[3-cyclohexyl-3-(trans-4-propoxy-cyclohexyl)-ureido]-thiazol-5-ylsulfanyl}-acetic acid]
[1]; vacuum/45° C./1 d
  XRPD Results after drying: Compound I Form B +

## CCCO[C@H]1CC[C@H](N(C(=O)Nc2ncc(SCC(=O)O)s2)C2CCCCC2)CC1 [Compound I Material G, {2-[3-cyclohexyl-3-(trans-4-propoxy-cyclohexyl)-ureido]-thiazol-5-ylsulfanyl}-acetic acid]
[1]; vacuum/45° C./1 d
  XRPD Results after drying: disordered

## CCCO[C@H]1CC[C@H](N(C(=O)Nc2ncc(SCC(=O)O)s2)C2CCCCC2)CC1 [Compound I, {2-[3-cyclohexyl-3-(trans-4-propoxy-cyclohexyl)-ureido]-thiazol-5-ylsulfanyl}-acetic acid]
[2]
  XRPD Result after polymorph screen experiment: decomposed
[3]
  XRPD Result after slurry-trituration: decomposed
glucokinase; oral, liver selective glucokinase activator
  Glycemic control: improves glycemic control
glucokinase; therapeutically relevant doses, compared with other GK activators
  Adverse effects (hypoglycemia, dyslipidemia/increased TG, liver glycogen and TG, loss of efficacy): does not cause similar adversarial effects; also recorded: may not induce hypoglycemia, dyslipidemia, or pathological increases of glycogen and TG in the liver

## CCCO[C@H]1CC[C@H](N(C(=O)Nc2ncc(SCC(=O)O)s2)C2CCCCC2)CC1 [Form A, {2-[3-cyclohexyl-3-(trans-4-propoxy-cyclohexyl)-ureido]-thiazol-5-ylsulfanyl}-acetic acid]
[4]; 2-8° C.
  XRPD Results after competitive slurry of Forms A, D, B, E: Form A
[4]; 45° C.
  XRPD Results after competitive slurry of Forms A, D, B, E: Form A
[4]; RT
  XRPD Results after competitive slurry of Forms A, D, B, E: Form A
[4]; within 2-8° C. to 45° C., based on competitive slurries
  Relative stability among anhydrous forms A, B, D, E: likely the most stable form

## CCCO[C@H]1CC[C@H](N(C(=O)Nc2ncc(SCC(=O)O)s2)C2CCCCC2)CC1 [Form C, {2-[3-cyclohexyl-3-(trans-4-propoxy-cyclohexyl)-ureido]-thiazol-5-ylsulfanyl}-acetic acid]
[1]
  Solid form change upon drying / desolvation: desolvates into Form D
[1]; vacuum/45° C./1 h
  XRPD Results after drying: Compound I Form D
[1]; vacuum/45° C./1 d, listed as Compound I Form C
  XRPD Results after drying: Compound I Form D ±

## CCCO[C@H]1CC[C@H](N(C(=O)Nc2ncc(SCC(=O)O)s2)C2CCCCC2)CC1 [Form F, {2-[3-cyclohexyl-3-(trans-4-propoxy-cyclohexyl)-ureido]-thiazol-5-ylsulfanyl}-acetic acid]
[1]
  Solid form change upon drying / desolvation: converts to Form D upon drying
[1]; vacuum/45° C./3 d, listed as Compound I Form F
  XRPD Results after drying: Compound I Form D

## CCCO[C@H]1CC[C@H](N(C(=O)Nc2ncc(SCC(=O)O)s2)C2CCCCC2)CC1 [Form G, {2-[3-cyclohexyl-3-(trans-4-propoxy-cyclohexyl)-ureido]-thiazol-5-ylsulfanyl}-acetic acid]
[1]
  Solid form change upon drying / desolvation: become disordered upon drying
[1]; vacuum/45° C./3 d, listed as Compound I Form G
  XRPD Results after drying: disordered

## CCCO[C@H]1CC[C@H](N(C(=O)Nc2ncc(SCC(=O)O)s2)C2CCCCC2)CC1 [Form H, {2-[3-cyclohexyl-3-(trans-4-propoxy-cyclohexyl)-ureido]-thiazol-5-ylsulfanyl}-acetic acid]
[1]
  Solid form change upon drying / desolvation: become disordered upon drying

## CCCO[C@H]1CC[C@H](N(C(=O)Nc2ncc(SCC(=O)O)s2)C2CCCCC2)CC1 [Form I, {2-[3-cyclohexyl-3-(trans-4-propoxy-cyclohexyl)-ureido]-thiazol-5-ylsulfanyl}-acetic acid]
[1]
  Solid form change upon drying / desolvation: converts to Form E or solids similar to Form E upon drying
[1]; vacuum/45° C./1 d, listed as Compound I Form I
  XRPD Results after drying: Compound I Form B
